Test results: patent US20240383908A1, “SYNTHESIS AND APPLICATION OF PHOSPHATASE DEGRADER” (HINOVA PHARMACEUTICALS INC., priority 2021, published 2024)

Columns and labels:
Type in all cases: cell-based
[1] = target: T1, SHP2 protein (Homo sapiens, UniProt Q06124); experiment: Degradation activity on SHP2 protein in MV-411 cells (Western blot, DC50); set-up: endogenous in cells; settings: MV411 cells, 24 hours, read-out: Degradation activity for differenct cell lines MV411 (DC50)
T1 sequence (Q06124 1-593): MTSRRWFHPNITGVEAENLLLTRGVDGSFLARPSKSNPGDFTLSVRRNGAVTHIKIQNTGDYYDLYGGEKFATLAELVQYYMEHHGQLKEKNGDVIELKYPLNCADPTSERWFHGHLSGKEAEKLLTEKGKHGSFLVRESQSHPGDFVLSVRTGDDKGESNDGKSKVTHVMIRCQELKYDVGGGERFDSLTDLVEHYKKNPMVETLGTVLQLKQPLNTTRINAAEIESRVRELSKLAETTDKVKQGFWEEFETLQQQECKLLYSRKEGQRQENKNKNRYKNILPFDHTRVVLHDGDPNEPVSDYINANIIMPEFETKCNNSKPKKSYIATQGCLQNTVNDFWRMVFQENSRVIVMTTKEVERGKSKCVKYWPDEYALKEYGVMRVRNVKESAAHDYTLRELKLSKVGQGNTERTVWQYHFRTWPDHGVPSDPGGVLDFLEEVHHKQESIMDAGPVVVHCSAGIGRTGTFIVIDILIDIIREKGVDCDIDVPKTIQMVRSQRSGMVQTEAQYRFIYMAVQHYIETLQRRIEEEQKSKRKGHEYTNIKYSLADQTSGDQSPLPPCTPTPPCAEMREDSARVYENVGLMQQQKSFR
In short: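 MV-411 cells (1×10^6 cells/well, IMDM + 10% FBS) were treated 24 h with compound at 0.1-100 nM final, 0.1% DMSO, duplicates. SHP2 measured by Western blot against GAPDH, band density normalised to DMSO control; DC50 from dose-response fit.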

[2] = target: T1, SHP2 protein; experiment: Degradation activity on SHP2 protein in NCI-H358 cells (Western blot, DC50); set-up: endogenous in cells; settings: read-out: Degradation activity for differenct cell lines NCI-H358 (DC50)
Experimental: (1) MV-411 cells were cultured in the cell culture medium, and then well-growing cells were selected and inoculated in a 12-well plate, with 1 mL/well and 1×10^6 cells/well. The plate was incubated overnight in a 5% CO2 cell incubator at 37° C.
(2) 10 mM storage solution of each drug was prepared using dimethylsulfoxide (DMSO). The stock solution was diluted gradually with DMSO before use, and then 1 μL of the compound solution was added to the cell culture well (to ensure that the DMSO concentration in the culture system was […]), so that the final drug concentration is 100 nM, 10 nM, 3 nM, 1 nM, 0.3 nM, and 0.1 nM. Two wells were set for each concentration. The plate was gently shaken and mixed. Additionally, negative control wells (containing an equal amount of DMSO) and positive control wells were included.
(3) After 24 hours of cultivation, the cells were lysed using RIPA cell lysate, and the proteins were extracted. The protein concentration was measured using a BCA assay kit. 5× concentrated protein buffer was loaded, heated at 100° C. for 5 min, and then the sample was stored at −20° C.
(4) For each well, 30 μg of protein was loaded to polyacrylamide gel for electrophoresis.
(5) The protein was transferred from polyacrylamide gel to PVDF membrane, and sealed at room temperature with 5% skimmed milk for 1 h, which was then incubated with the primary antibodies (Anti-SHP2 rabbit mAb and Anti-GAPDH rabbit mAb) at 4° C. overnight. The membrane was washed three times with TBST solution, 10 minutes for each time. After that, the membrane was incubated with the secondary antibodies (horseradish peroxidase labeled goat anti-rabbit IgG) at room temperature for 2 h, and then washed three times with TBST solution, 10 minutes for each time, followed by exposure.
(6) The images were analyzed with Image J grayscale, and the degradation ratio of protein bands in the test group was calculated, based on the negative control group (DMSO) (100%).
(7) Using the Dose-response-inhibition equation in the data processing software GraphPad Prism 8, the DC50 value was obtained (which represents the drug concentration corresponding to 50% degradation of the target protein).
Using similar methods and different cell lines, the degradation activity of the compound according to the present invention on SHP2 protein of different cell lines was tested under suitable culture conditions.

[3] = target: T1, SHP2 protein; experiment: Degradation activity on SHP2 protein in MIA Paca-2 cells (Western blot, DC50); set-up: endogenous in cells; host or cells: MIA Paca-2 cells; settings: read-out: Degradation activity for differenct cell lines MIA Paca-2 (DC50)
In short: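 Cells were treated 24 h at 37 °C with compound (0.1–100 nM final, 0.1% DMSO). SHP2 was measured by Western blot with GAPDH as loading control, densitometry normalized to DMSO (100%). DC50, the concentration giving 50% degradation, came from a dose-response fit.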

| Compound | DC50 [1] [nM] | DC50 [2] [nM] | DC50 [3] [nM] |
| --- | --- | --- | --- |
| Cc1ncsc1-c1ccc([C@H](C)NC(=O)[C@@H]2C[C@@H](O)CN2C(=O)[C@@H](NC(=O)CCCCCN2CCC3(C2)CN(CCC(=O)Nc2cccc(Sc4cnc(N5CCC(C)(N)CC5)cn4)c2)C3)C(C)(C)C)cc1 [Compound 46] | < 100 | > 1000 |  |
| Cc1ncsc1-c1ccc([C@H](C)NC(=O)[C@@H]2C[C@@H](O)CN2C(=O)[C@@H](NC(=O)c2cnc(N3CCC4(CN(CCC(=O)Nc5cccc(Sc6cnc(N7CCC(C)(N)CC7)cn6)c5)C4)C3)nc2)C(C)(C)C)cc1 [Compound 64] | < 100 | 100 to 1000 | 100 to 1000 |
| Cc1ncsc1-c1ccc([C@H](C)NC(=O)[C@@H]2C[C@@H](O)CN2C(=O)[C@@H](NC(=O)c2cnc(N3CC(OCCCCCCCCC(=O)Nc4ccc(Sc5cnc(N6CCC(C)(N)CC6)cn5)cc4)C3)nc2)C(C)(C)C)cc1 [Compound 75] | < 100 | < 100 | < 100 |
| Cc1ncsc1-c1ccc([C@H](C)NC(=O)[C@@H]2C[C@@H](O)CN2C(=O)[C@@H](NC(=O)c2cnc(N3CCC(OCCCCCCCC(=O)Nc4cccc(Sc5cnc(N6CCC(C)(N)CC6)cn5)c4)CC3)nc2)C(C)(C)C)cc1 [Compound 78] | < 100 | < 100 | < 100 |
| CC1(N)CCN(c2cnc(Sc3cccc(NC(=O)CCCCCCCOC4CCN(c5ncc(C(=O)NCc6ccc7c(c6)CN(C6CCC(=O)NC6=O)C7=O)cn5)CC4)c3)cn2)CC1 (centres unmarked) [Compound 79] | < 100 | < 100 | 100 to 1000 |
| Cc1ncsc1-c1ccc([C@H](C)NC(=O)[C@@H]2C[C@@H](O)CN2C(=O)[C@@H](NC(=O)c2cnc(N3CC(OCCCCCCC(=O)Nc4cccc(Sc5cnc(N6CCC(C)(N)CC6)cn5)c4)C3)nc2)C(C)(C)C)cc1 [Compound 86] | < 100 | < 100 | < 100 |
| CC1(N)CCN(c2cnc(Sc3cccc(NC(=O)CCCCCCCN4CC5CN(c6ccc(C(=O)NCc7ccc8c(c7)CN(C7CCC(=O)NC7=O)C8=O)nn6)CC5C4)c3)cn2)CC1 (centres unmarked) [Compound 100] | < 100 | < 100 | < 100 |
| CC1(N)CCN(c2cnc(Sc3cccc(NC(=O)CCCCCOC4CC5(CCN(c6ccc(C(=O)NCc7ccc8c(c7)CN(C7CCC(=O)NC7=O)C8=O)cc6F)CC5)C4)c3)cn2)CC1 (centres unmarked) [Compound 176] | < 100 | 100 to 1000 | < 100 |
| CC1(N)CCN(c2cnc(Sc3cccc(NC(=O)CCCCCCN4CC5(CCN(c6ccc(C(=O)NCc7ccc8c(c7)CN(C7CCC(=O)NC7=O)C8=O)nc6)C5)C4)c3)cn2)CC1 (centres unmarked) [Compound 186] | < 100 | < 100 | < 100 |
| CC1(N)CCN(c2cnc(Sc3cccc(NC(=O)CCCCCCCCN4CC=C(c5ccc(C(=O)NCc6ccc7c(c6)CN(C6CCC(=O)NC6=O)C7=O)nn5)CC4)c3)cn2)CC1 (centres unmarked) [Compound 188] | < 100 | < 100 | < 100 |
| CC1(N)CCN(c2cnc(Sc3cccc(NC(=O)CCCCCCN4CC5(CCN(c6ccc(C(=O)NCc7ccc8c(c7)CN(C7CCC(=O)NC7=O)C8=O)nc6Cl)C5)C4)c3)cn2)CC1 (centres unmarked) [Compound 200] | < 100 | < 100 | < 100 |
| CC1(N)CCN(c2cnc(Sc3cccc(NC(=O)CCCCCCN4CC5(CC=C(c6ccc(C(=O)NCc7ccc8c(c7)CN(C7CCC(=O)NC7=O)C8=O)nn6)CC5)C4)c3)cn2)CC1 (centres unmarked) [Compound 207] | < 100 | < 100 | < 100 |
